Among the data in patent publication US20260347372A1, “SMALL MOLECULE INHIBITORS OF KRAS G12D MUTANT” (MERCK SHARP & DOHME LLC, priority 2023, published 2026) are IC50 values, retold here.

By pIC50 is commonly meant −log10 of the IC50, conventionally taken in molar units.

For one assay, the target named is KRAS G12D (Homo sapiens, UniProt P01116, G12D). As to the kind of experiment: SOS-catalyzed nucleotide exchange assay, KRAS G12D (Procedure A). In kind it is biochemical. The conditions noted are these: guanine nucleotide exchange (GNE). The gist of the method: (§1)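 Compounds in 10-point 3-fold series sat 60 min with biotin-KRAS/Bodipy-GDP/Tb-streptavidin complex, then human SOS and 3 mM GTP were added. G13D: 1.25 nM KRAS, no SOS, 30 min. WT and G12D: 1 nM with 40 nM SOS, 60 min. G12C (C51S/C80L/C118S): 3 nM/40 nM, 60 min. Curves fitted from normalised TR-FRET 520/495 ratio.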
KRAS G12D, sequence (P01116 with tags, fused parts or gaps isoform P01116-2 G12D): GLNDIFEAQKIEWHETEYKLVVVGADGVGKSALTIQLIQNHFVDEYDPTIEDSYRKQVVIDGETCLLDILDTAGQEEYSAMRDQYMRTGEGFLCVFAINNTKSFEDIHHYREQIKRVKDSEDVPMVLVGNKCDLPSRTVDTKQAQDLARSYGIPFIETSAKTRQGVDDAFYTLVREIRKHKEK

The target in the next assay is KRAS WT (Homo sapiens, UniProt P01116). In words: SOS-catalyzed nucleotide exchange assay, KRAS WT (Procedure A). It counts as biochemical. The settings on record: GNE. A digest of the protocol:
as §1

Another assay deals with KRAS G12C (Homo sapiens, UniProt P01116, C118S/C51S/C80L/G12C). In words: SOS-catalyzed nucleotide exchange assay, KRAS G12C (Procedure A). It counts as biochemical. The conditions noted are these: GNE. The gist of the method: as §1
KRAS G12C, sequence (P01116 with tags, fused parts or gaps isoform P01116-2 G12C/C51S/C80L/C118S): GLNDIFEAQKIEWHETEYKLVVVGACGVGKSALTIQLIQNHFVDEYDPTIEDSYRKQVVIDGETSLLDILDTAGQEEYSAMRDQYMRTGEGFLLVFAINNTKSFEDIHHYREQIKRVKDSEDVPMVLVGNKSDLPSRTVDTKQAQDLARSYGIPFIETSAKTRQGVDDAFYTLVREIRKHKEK
For the next assay, the target named is KRAS G12V (Homo sapiens, UniProt P01116, G12V). In words: SOS-catalyzed nucleotide exchange assay, KRAS G12V (Procedure A). In kind it is biochemical. The settings on record: GNE. The gist of the method:
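Biotinylated KRAS G12V was loaded with Bodipy-GDP alongside Terbium-streptavidin to form a TR-FRET complex, which was preincubated with compounds for 60 minutes in 384-well plates. Human SOS protein and unlabeled GTP were then added for 90 minutes, giving final concentrations of 1.25 nM KRAS-G12V, 160 nM SOS and 3 mM GTP. The 520/495 nm emission ratio was read on an Envision.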

A further assay has as its target KRAS G13D (Homo sapiens, UniProt P01116, G13D). In words: SOS-catalyzed nucleotide exchange assay, KRAS G13D (Procedure A). In kind it is biochemical. The settings on record: GNE. A digest of the protocol:
as §1

The next assay deals with HRAS (Homo sapiens, UniProt P01112). As to the kind of experiment: SOS-catalyzed nucleotide exchange assay, HRAS (Procedure A). The settings on record: GNE. It counts as biochemical. The gist of the method:
(§2)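 60 min cpd preinc. w/ RAS–Bodipy-GDP–Tb-SA complex; + hSOS/GTP (3 mM final), RT. G12C 3 nM RAS/40 nM SOS; WT, G12D 1 nM/40 nM; 60 min rxn. G13D 1.25 nM, no SOS, 30 min rxn. HEPES pH 7.5, 10 mM MgCl2. Ratio 520/495, norm. to DMSO/max-inhibitor ctrls.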

The target in a further assay is NRAS (Homo sapiens, UniProt P01111). In words: SOS-catalyzed nucleotide exchange assay, NRAS (Procedure A). It counts as biochemical. The settings on record: GNE. A digest of the protocol: as §2
NRAS, sequence (P01111 with tags, fused parts or gaps): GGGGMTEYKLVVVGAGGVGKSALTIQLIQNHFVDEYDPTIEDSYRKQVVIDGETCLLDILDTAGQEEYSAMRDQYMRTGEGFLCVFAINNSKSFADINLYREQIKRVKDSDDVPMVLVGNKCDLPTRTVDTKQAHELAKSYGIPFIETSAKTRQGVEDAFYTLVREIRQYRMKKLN
The next assay addresses T1, PANC08.13 cells (Homo sapiens, UniProt P01116, G12D).
T1 construct: p-ERK/total ERK AlphaSureFire read-out
As to the kind of experiment: Cellular phospho-ERK assay, PANC08.13 cells (KRAS G12D). It counts as cell-based. The conditions noted are these: 2 hours, read-out: PANCO 813 pERK IC50. The protocol: Procedure for Cellular Phospho-ERK Assay in KRAS Wild Type and Mutant (G12D, G12V) Cell Lines
PANC08.13 cells (ATCC® CRL-2551™), containing homozygous KRAS-G12D activating mutation, were cultured in growth medium made of RPMI1640-GlutaMAX™-I (ThermoFisher Scientific 61870) containing 15% heat inactivated fetal bovine serum (ThermoFisher Scientific 10091148)). AsPC-1 cells (ATCC® CRL-1682™), containing homozygous KRAS-G12D activating mutation, were cultured in T150 flask in growth medium (RPMI medium 1640-GlutaMAX™-I (ThermoFisher Scientific 61870) containing 10% fetal bovine serum (ThermoFisher Scientific 10091148)).
Cells for the assay were harvested in growth medium after TrypLE (ThermoFisher scientific 12604021) digestion and were seeded in a 384-well collagen coated cell culture plate (Corning 356702) at a density of 10,000-15,000 cells/20 μL/well, and incubated at 37° C., 5% CO2 overnight. The compound (with 10 mM stock concentration) dose-response titrations were prepared [30 μM final ERK detection assay concentration and 1:3 dilutions, 10-point dose response] and appropriate amounts (270 nL) of test compounds were dispensed in a 384-well intermediate plate using an Echo 550 liquid handler. 30 μL/well of RPMI medium 1640-GlutaMAX™-I was added to the intermediate plate and the contents of the intermediate plate (10 μL/well) were then transferred to the 384-well collagen coated cell culture plate, which was incubated at 37° C., 5% CO2 for 2 hours. After removal of medium from the collagen coated cell culture plate, cells were lysed in lysis buffer from Alpha SureFire® Ultra™ Multiplex p-ERK and total ERK assay kit (PerkinElmer MPSU-PTERK) containing Halt™ Protease and Phosphatase inhibitor cocktail (ThermoFisher Scientific 78446) at room temperature with constant shaking at 300 rpm for 30 minutes. The cell lysates were then transferred to an OptiPlate-384 plate (PerkinElmer 6005620), and the phosphorylation of ERK (p-ERK) and total ERK levels were detected by Alpha SureFire® Ultra™ Multiplex p-EEK kit and total ERK assay kit (PerkinElmer MPSU-PTERK) following the manufacturer's protocol. Assay plates were read on a EnVision Multimode Plate Reader (PerkinElmer), and the ratio of p-ERK vs. total ERK in each well was used as the final readout. Dose response curves were analyzed using a 4-parameter logistic model to calculate IC50 values using Spotfire software.

pIC50: −log10 of the molar value.

KRAS G13D, sequence (P01116 with tags, fused parts or gaps isoform P01116-2 G13D): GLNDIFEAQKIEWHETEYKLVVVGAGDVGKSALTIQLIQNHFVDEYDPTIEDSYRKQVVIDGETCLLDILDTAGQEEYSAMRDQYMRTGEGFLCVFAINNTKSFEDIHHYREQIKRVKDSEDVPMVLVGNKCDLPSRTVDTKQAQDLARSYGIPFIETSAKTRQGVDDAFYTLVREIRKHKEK
HRAS, sequence (P01112 with tags, fused parts or gaps): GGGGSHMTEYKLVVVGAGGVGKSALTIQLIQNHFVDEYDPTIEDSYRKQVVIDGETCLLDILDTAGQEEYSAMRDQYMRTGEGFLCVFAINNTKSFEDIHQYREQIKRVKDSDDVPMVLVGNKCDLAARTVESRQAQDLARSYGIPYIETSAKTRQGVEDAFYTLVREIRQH
T1 sequence (P01116 1-188 isoform P01116-2 G12D): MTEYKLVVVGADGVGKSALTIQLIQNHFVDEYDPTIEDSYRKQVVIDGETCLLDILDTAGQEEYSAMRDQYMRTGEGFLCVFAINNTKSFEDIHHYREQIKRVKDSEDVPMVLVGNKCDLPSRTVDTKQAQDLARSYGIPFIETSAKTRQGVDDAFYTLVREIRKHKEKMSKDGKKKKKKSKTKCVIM
KRAS G12V, sequence (P01116 with tags, fused parts or gaps isoform P01116-2 G12V): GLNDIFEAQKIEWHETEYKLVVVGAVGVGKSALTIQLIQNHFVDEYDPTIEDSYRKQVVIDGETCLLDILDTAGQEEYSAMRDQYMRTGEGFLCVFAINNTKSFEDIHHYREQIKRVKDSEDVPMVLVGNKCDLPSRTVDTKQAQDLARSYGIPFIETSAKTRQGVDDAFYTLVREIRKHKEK
KRAS WT, sequence (P01116 with tags, fused parts or gaps isoform P01116-2): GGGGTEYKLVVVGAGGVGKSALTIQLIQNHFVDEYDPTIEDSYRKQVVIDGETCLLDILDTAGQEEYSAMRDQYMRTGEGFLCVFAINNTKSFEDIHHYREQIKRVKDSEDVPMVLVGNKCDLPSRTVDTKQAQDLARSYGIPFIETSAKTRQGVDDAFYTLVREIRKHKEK

For the compound `Nc1nc2c(-c3nccc4c3sc3nc(OC[C@@]56CCCN5C[C@H](F)C6)nc(N5C[C@H]6CC[C@@H](C5)N6)c34)c(F)cc(F)c2o1` [Ex-15, 4-(4-((1R,5S)-3,8-diazabicyclo[3.2.1]octan-3-yl)-2-(((2R,7aS)-2-fluorotetrahydro-1H-pyrrolizin-7a(5H)-yl)methoxy)pyrido[4′,3′:4,5]thieno [2,3-d]pyrimidin-8-yl)-5,7-difluorobenzo[d]oxazol-2-amine], the pIC50 was 5.30 on KRAS G12D; under 4.95 on KRAS WT; under 4.96 against KRAS G12C; under 4.95 at KRAS G12V; under 4.96 against KRAS G13D; under 4.96 against HRAS. Moreover, the pIC50 at NRAS is under 4.96; on PANC08.13 cells it was under 5.00.
As for `Cc1cc2[nH]ncc2c(-c2nccc3c4c(N5C[C@H]6CC[C@@H](C5)N6)nc(OC[C@]5(CO)CC5(F)F)nc4n(C)c23)c1C(F)(F)F` [Ex-53, ((1R)-1-(((4-((1R,5S)-3,8-diazabicyclo[3.2.1]octan-3-yl)-9-methyl-8-(6-methyl-5-(trifluoromethyl)-1H-indazol-4-yl)-9H-pyrido[4′,3′:4,5]pyrrolo[2,3-d]pyrimidin-2-yl)oxy)methyl)-2,2-difluorocyclopro-pyl)methanol], the pIC50 against KRAS G12D is 6.23; against KRAS WT it was under 4.95; on KRAS G12C, under 4.96; on KRAS G12V, under 4.95; on KRAS G13D, 5.31; against HRAS, under 4.96. For the same compound, the pIC50 on NRAS is under 4.96; at PANC08.13 cells it was 5.40.
`Cn1c2nc(OC[C@@]34CCCN3C[C@H](F)C4)nc(N3C[C@H]4CC[C@@H](C3)N4)c2c2ccnc(-c3ccc(F)c4sc(N)c(C#N)c34)c21` [Ex-5, 4-(4-((1R,5S)-3,8-diazabicyclo[3.2.1]octan-3-yl)-2-(((2R,7aS)-2-fluorotetrahydro-1H-pyrrolizin-7a(5H)-yl)methoxy)-9-methyl-9H-pyrido[4′,3′:4,5]pyrrolo[2,3-d]pyrimidin-8-yl)-2-amino-7-fluorobenzo[b]thiophene-3-carbonitrile]: the pIC50 against KRAS G12D was 7.74; against KRAS WT it was under 4.95; against KRAS G12C, under 4.96; at KRAS G12V, under 4.95; at KRAS G13D, 6.46; against HRAS, under 4.96. The pIC50 was under 4.96 on NRAS and 5.93 on PANC08.13 cells.
Take `N#Cc1c(N)sc2c(F)ccc(-c3nccc4c3sc3nc(OC[C@@]56CCCN5C[C@H](F)C6)nc(N5C[C@H]6CC[C@@H](C5)N6)c34)c12` [Ex-17, 4-(4-((1R,5S)-3,8-diazabicyclo[3.2.1]octan-3-yl)-2-(((2R,7aS)-2-fluorotetrahydro-1H-pyrrolizin-7a(5H)-yl)methoxy)pyrido[4′,3′:4,5]thieno [2,3-d]pyrimidin-8-yl)-2-amino-7-fluorobenzo[b] thiophene-3-carbonitrile]: the pIC50 at KRAS G12D was 7.62; against KRAS WT, under 4.95; against KRAS G12C, under 4.96; against KRAS G12V, under 4.95; at KRAS G13D, under 4.96; at HRAS it was under 4.96. Moreover, the values for the pIC50 on NRAS and at PANC08.13 cells were under 4.96 and 5.79, respectively.
`Cc1cc2[nH]ncc2c(-c2nccc3c2oc2nc(OC[C@@]45CCCN4C[C@H](F)C5)nc(N4C[C@H]5CC[C@@H](C4)N5)c23)c1C(F)(F)F` [Ex-78, 4-((1R,5S)-3,8-diazabicyclo[3.2.1]octan-3-yl)-2-(((2R,7aS)-2-fluorotetrahydro-1H-pyrrolizin-7a(5H)-yl)methoxy)-8-(6-methyl-5-(trifluoromethyl)-1H-indazol-4-yl)pyrido[4′,3′:4,5]furo[2,3-d]pyrimidine]: the pIC50 against KRAS G12D is 6.14; at KRAS WT it was under 4.95; on KRAS G12C, under 4.96; at KRAS G12V, under 4.95; at KRAS G13D, under 4.96; against HRAS, under 4.96. Further, the pIC50 against NRAS was under 4.96; at PANC08.13 cells, 5.58.
Consider `Cn1c2nc(OC[C@]3(CO)CC3(F)F)nc(N3C[C@H]4CC[C@@H](C3)N4)c2c2ccnc(-c3ccc(F)c4sc(N)c(C#N)c34)c21` [Ex-62, 4-(4-((1R,5S)-3,8-diazabicyclo[3.2.1]octan-3-yl)-2-(((R)-2,2-difluoro-1-(hydroxymethyl)cyclopro-pyl)methoxy)-9-methyl-9H-pyrido[4′,3′:4,5]pyrrolo[2,3-d]pyrimidin-8-yl)-2-amino-7-fluorobenzo[b]thiophene-3-carbonitrile], for which the pIC50 on KRAS G12D was 6.19; on KRAS WT, under 4.95; against KRAS G12C, 5.07; at KRAS G12V it was under 4.95; on KRAS G13D it was 5.81; against HRAS, under 4.96. Besides, the pIC50 is under 4.96 on NRAS and under 5.00 at PANC08.13 cells.
As for `Cn1c2nc(OC[C@]3(CO)CC3(F)F)nc(N3C[C@H]4CC[C@@H](C3)N4)c2c2ccnc(-c3c(F)cc(F)c4sc(N)c(C#N)c34)c21` [Ex-63, 4-(4-((1R,5S)-3,8-diazabicyclo[3.2.1]octan-3-yl)-2-(((R)-2,2-difluoro-1-(hydroxymethyl)cyclopro-pyl)methoxy)-9-methyl-9H-pyrido[4′,3′:4,5]pyrrolo[2,3-d]pyrimidin-8-yl)-2-amino-5,7-difluorobenzo[b]thiophene-3-carbonitrile], the pIC50 against KRAS G12D was 7.13; on KRAS WT, under 4.95; against KRAS G12C, under 4.96; against KRAS G12V, under 4.95; against KRAS G13D it was under 4.96; on HRAS, under 4.96. Besides, the pIC50 against NRAS was under 4.96; on PANC08.13 cells, under 5.00.
As for `Cc1cc2[nH]ncc2c(-c2nccc3c4c(N5CC[C@H]6NCC[C@H]65)nc(OC[C@@]56CCCN5C[C@H](F)C6)nc4n(C)c23)c1C(F)(F)F` [Ex-66, 2-(((2R,7aS)-2-fluorotetrahydro-1H-pyrrolizin-7a(5H)-yl)methoxy)-4-((3aR,6aR)-hexahydropyrrolo[3,2-b]pyrrol-1(2H)-yl)-9-methyl-8-(6-methyl-5-(trifluoromethyl)-1H-indazol-4-yl)-9H-pyrido[4′,3′:4,5]pyrrolo[2,3-d]pyrimidine], the pIC50 against KRAS G12D is 6.70; at KRAS WT it was 5.20; on KRAS G12C, 5.77; against KRAS G12V, under 4.95; against KRAS G13D, 5.82; against HRAS, under 4.96. In addition, the pIC50 was under 4.96 against NRAS and 5.90 on PANC08.13 cells.
